Test results published in US5965544A, “Synthetic multivalent sLe^x containing polylactosamines and methods for use” (Glycim Oy, priority 1996, dated 1999).
“Also recorded” adds a separate entry of the source. Read-outs that look alike come from different tables or passages of the source. One block for each compound: values may come before it.

What was measured:
[1] = tested on: mouse sperm adhesion to eggs; settings: Litscher et al. 1995; cited from earlier work
CD22 = settings: cited from earlier work
inflammation = settings: cited from earlier work
[2] = tested on: L-selectin-dependent lymphocyte adhesion to peritubular capillary endothelium (PTCE); test: Stamper-Woodruff binding assay: lymphocyte adhesion to peritubular capillary endothelium of rejecting kidney allografts; settings: for inhibition of lymphocyte binding to PTCE (in words) / inhibitory capacity compared with other oligosaccharides (in words): rejecting kidney allografts; for IC50: read-out: IC50, inhibitory concentration preventing 50% of binding, L-selectin-dependent lymphocyte binding, rejecting rat kidney transplant
Description: The animal models for cardiac transplant rejection and kidney transplant rejection utilized inbred WF (RT1^v) and DA (RT1^a) rat strains that were maintained in a colony and regularly tested for intrastrain acceptance of transplants as well as for the absence of intrastrain mixed lymphocyte culture. DA transplants into WF recipients were allografts, WF grafts to WF and DA grafts to DA served as syngeneic controls.
Small pieces of the removed syngeneic (DA to DA and WF to WF), allogeneic (DA to WF) transplants were mounted in Tissue Tek medium (Lab-Tek Productions, Naperville, Ill.) and snapfrozen in liquid nitrogen. Eight μm thick frozen sections were prepared within one hour prior to the use of the sections in the lymphocyte--endothelium binding assay (Renkonen, R. et al., Transplantation 47:577-579 (1989); Renkonen, R. et al., Am. J. Pathol. 137:643-651 (1990); Turunen J. P. et al., Transplantation 54:1053-1058 (1992); Turunen, J. P. et al., Eur. J. Immunol. 24:1130-1136 (1994); Turunen, J. P. et al., J. Exp. Med., 182:1133-1142 (1995)).
Single cell suspensions of mesenterical lymph node lymphocytes were made by mechanical disaggregation in RPMI 1640 medium (Gibco, Grand Island, N.Y.) supplemented with Hepes (25 mM) and 0.5% fetal calf serum and the cells were passed through a 50 μm pore size mesh. Over 99% of the cells were lymphocytes, and the lymphocyte population consisted of 80-90% CD3-positive T cells, 50-60% CD4-positive T cells, 25-35% CD8-positive T cells and 10-20% CD19-positive B cells, as analyzed by flow cytometric analyses and immunoperoxidase stainings from cytocentrifuge preparations.
3×10^6 cells in 100 μl of the medium were plated on top of the tissue sections using a wax pen circle to avoid escape of the fluid. The sections were rotated horizontally on a shaker at 60 rpm for 30 minutes at +4° C. After incubation, the medium was gently tapped away by an absorbent paper and the slides were fixed in 1.5% cold glutaraldehyde overnight. The slides were stained with thionine for 30 min. The excess thionine was gently washed away from the slides in PBS, and the slides were mounted with PBS-glycerol (1:1) or Aquamount Mountant, (BHD Limited, Poole, England). From these preparations the number of lymphocytes bound to various structures was determined. At least 10-20 high power fields were analyzed from each sample and 3-4 animals were included in each group.
The oligosaccharides were dissolved in the binding buffer, and the lymphocytes were incubated in these solutions for 30 min in +4° C. Thereafter, the lymphocytes at the saccharide solutions were added to the Stamper-Woodruff binding assay without further washings and the assay was conducted as described above.
The lymphocytes were, or were not, pretreated for 30 min with various oligosaccharide constructs and added to the Stamper-Woodruff binding assay. After a 30 min binding assay the loose cells were washed away and the number of bound cells were determined.
The binding assays consisted of three experiments performed on separate days.

[3] = tested on: L-selectin-dependent lymphocyte adhesion to cardiac endothelium; test: Stamper-Woodruff binding assay: lymphocyte adhesion to endothelium of rejecting cardiac transplants; assay type: cell-based, rat; settings: rejecting cardiac allografts
Description: The inhibition of lymphocyte adhesion to cardiac endothelium during acute rejection episodes by oligosaccharides was examined using the family of oligosaccharides synthesized by enzyme-aided synthesis in Example 2: monovalent sLex tetrasaccharide (1), divalent sLex decasaccharide (4) and tetravalent sLex 22-meric oligosaccharide (9) and their non-fucosylated sialyl lactosamine analogues (3, 8). […] Concomitantly the non-fucosylated sialyl-lactosamine glycans were without effect.
In parallel experiments the capacity of the tetravalent sLex glycans 9 and 17, and of the nonfucosylated analogs glycan 8 and glycan 16, were compared in inhibiting L-selectin-dependent lymphocyte adhesion to cardiac endothelium during acute rejection. The lymphocytes were preincubated for 30 min with varying concentrations of the oligosaccharides and used thereafter in the Stamper-Woodruff binding assay in the incubation media as described in Example 1.

[4] = tested on: P-selectin mediated inflammation; settings: low concentrations; cited from earlier work
[5] = tested on: L-selectin-dependent lymphocyte adhesion to cardiac endothelium; settings: lymphocytes and rejecting rat heart endothelium, Turunen et al. 1995; cited from earlier work
adhesion = settings: Stoolman et al. 1984; cited from earlier work
[6] = listed as disialylated and difucosylated branched polylactosamine decasaccharide

Compound: CC(=O)NC1C(O)OC(CO)C(OC2OC(CO)C(O)C(OC3OC(CO)C(OC4OC(CO)C(O)C(OC5OC(CO)C(O)C(O)C5O)C4O)C(O)C3NC(C)=O)C2O)C1O (stereo not drawn) [Galα1-3Galβ1-4GlcNAcβ1-3Galβ1-4GlcNAc]
inhibition of mouse sperm adhesion to eggs [1]: does not

Compound: CC(=O)N[C@H]1[C@H]([C@H](O)[C@H](O)CO)O[C@@](OC[C@H]2O[C@@H](O[C@H]3[C@H](O)[C@@H](NC(C)=O)C(O)O[C@@H]3CO)[C@H](O)[C@@H](O)[C@H]2O)(C(=O)O)C[C@@H]1O (stereo partly drawn) [NeuAca2-6GalB1-4GlcNAc]
binding / affinity to CD22 (CD22): binds specifically

Compound: NeuAcα2-3Galβ1-4(Fucα1-3)GlcNAc [Glycan 1]
anti-inflammatory activity in vivo (inflammation): anti-inflammatory activity in vivo
decrease of lymphocyte adhesion / prevented L-selectin-dependent lymphocyte binding ([2]; at 0.5 μM): 39%
inhibition of lymphocyte binding to PTCE (in words) [2]: able to inhibit the lymphocyte binding to PTCE significantly
inhibition of lymphocyte adhesion to cardiac endothelium (in words) [3]: significantly reduce lymphocyte binding
inhibition of short-term P-selectin mediated inflammation [4]: inhibiting short-term P-selectin mediated inflammation
published Stamper-Woodruff data compared with the present ones [5]: quite similar to the present ones

IC50 [2]: 1000 nM
IC50 [2, 6]: 500 nM
inhibitory capacity compared with other oligosaccharides (in words) [2, 6]: less effective inhibitor
inhibition of lymphocyte adhesion to cardiac endothelium (in words) [3]: significantly reduce lymphocyte binding
Compound: NeuAcα2-3Galβ1-4(Fucα1-3)GlcNAcβ1-3(NeuAcα2-3Galβ1-4(Fucα1-3)GlcNAcβ1-6)Galβ1-4GlcNAc [Glycan 4]
inhibition of lymphocyte binding to PTCE (in words) [2]: able to inhibit the lymphocyte binding to PTCE significantly
inhibitory capacity compared with other oligosaccharides (in words) [2]: slightly weaker inhibitor than 28; also recorded: lesser inhibitory capacity than the alditol 28
published Stamper-Woodruff data compared with the present ones [5]: quite similar to the present ones

inhibition of lymphocyte binding to PTCE (in words) ([2]; listed as non-fucosylated O-glycosidic oligosaccharide alditol): did not possess any inhibitory activity
Compound: NeuAcα2-3Galβ1-4GlcNAcβ1-3(NeuAcα2-3Galβ1-4GlcNAcβ1-6)Galβ1-4GlcNAcβ1-6(Galβ1-3)GalNAc-ol [Glycan 26]
inhibition of lymphocyte binding to PTCE (in words) [2]: practically devoid of inhibitory activity; also recorded: did not inhibit the lymphocyte binding at all; also recorded: did not possess any inhibitory activity

Compound: fucoidin
concentration that blocked adhesion (adhesion): in the nM range
